{
  "source": "patent US20130045869A1",
  "about": "“COMPLEXES OF HERBICIDAL CARBOXYLIC ACIDS AND AMINE-CONTAINING POLYMERS OR OLIGOMERS” (Dow AgroSciences LLC, priority 2011, published 2013)",
  "key": {"[1]": {"experiment": "Relative volatility by thermo-gravimetric analysis", "assay_type": "physicochemical", "settings": "TGA at 120° C.", "procedure": "Using a TA Instruments (New Castle, Del.) Model TGA 2050 thermo-gravimetric analyzer, a typical thermo-gravimetric analysis (TGA) is carried out by (a) weighing out 10-20 mg of the sample, (b) loading it into an aluminum or platinum holding pan, and (c) measuring and recording the mass loss of the sample over time at a constant temperature of 120° C. The volatility of the sample is obtained as the rate of mass loss per unit time when the loss rate becomes constant (reaches steady state).\nRelative volatility is defined as the ratio of the volatility of a given 2,4-D or triclopyr sample over that of the corresponding 2,4-D DMA or triclopyr triethylamine salt that was arbitrarily set at 100."}, "Eye irritation testing": {"experiment": "Eye irritation testing", "assay_type": "in vivo, New Zealand albino rabbit", "settings": "456 gae/L, 21 days after application, most sensitive animal; for Eye irritation score, Iris: maximum 2; for Eye irritation score, Cornea: maximum 4; for Eye irritation score, Conjunctivae: maximum 10", "procedure": "Eye irritation testing was done according to guideline testing requirements specified in: (1) OECD Guideline for the Testing of Chemicals, Procedure 405 (2002), (2) U.S. EPA Health Effects Test Guidelines, OPPTS 870.2400 (1998), (3) JMAFF 12-Nouan-1847 (2000) and (4) Official Journal of the European Communities, Methods for the Determination of Toxicity, Part B.5 (Eye Irritation), Directive 2004/73/ED, 29 Apr. 2004.\nTest material formulations were administered to New Zealand albino rabbit (1 to 3 animals per formulation) to determine the potential to produce eye irritation. The material was applied in a single dose to the conjuctival sac of one eye of each animal. The other eye remained untreated and served as a control. Irritation of the cornea, iris and conjunctivae were evaluated 21 days after application of the test material.\nThe results are reported as irritation present in the cornea, iris and conjunctivae in the most sensitive animal 21 days after application. Testing was conducted with the following concentrates: (1) 2,4-D PEI complex (Lupasol® G20 complex, 456 grams acid equivalent per liter (gae/l)), (2) 2,4-D DMA (dimethyl ammonium salt, 456 gae/l), (3) 2,4-D DMEA (dimethylethyl ammonium salt, 456 gae/l), (4) 2,4-D IPA (isopropyl ammonium salt, 456 gae/l), and (5) 2,4-D TIPA (triisopropanol ammonium salt, 456 gae/l)."}, "[2]": {"settings": "ratio to triclopyr triethylamine salt set at 100"}, "[3]": {"settings": "ratio to 2,4-D DMA salt set at 100"}},
  "data": [
    {"compound": "CCCCOCCOC(=O)COc1nc(Cl)c(Cl)cc1Cl", "note": "[triclopyr butoxyethyl ester]", "values": [
      {"measurement": "Relative volatility", "setting": "[1]; [2]", "result": 302}
    ]},
    {"compound": "CC(O)CN(CC(C)O)CC(C)O.O=C(O)COc1ccc(Cl)cc1Cl", "note": "(stereo not drawn) [2,4-D TIPA]", "values": [
      {"measurement": "Eye irritation score, Iris", "setting": "Eye irritation testing", "result": 0},
      {"measurement": "Eye irritation score, Cornea", "setting": "Eye irritation testing", "result": 3},
      {"measurement": "Eye irritation score, Conjunctivae", "setting": "Eye irritation testing", "result": 1}
    ]},
    {"compound": "O=C(O)COc1ccc(Cl)cc1Cl", "note": "[2,4-D acid tech, 2,4-dichlorophenoxyacetic acid]", "values": [
      {"measurement": "Relative volatility", "setting": "[1]; [3]", "result": 249}
    ]},
    {"compound": "CCCCC(CC)COC(=O)COc1ccc(Cl)cc1Cl", "note": "(stereo not drawn) [2,4-D ethylhexyl ester]", "values": [
      {"measurement": "Relative volatility", "setting": "[1]; [3]", "result": 1201}
    ]},
    {"compound": "O=C(O)COc1nc(Cl)c(Cl)cc1Cl", "note": "[triclopyr acid]", "values": [
      {"measurement": "Relative volatility", "setting": "[1]; [2]", "result": 135}
    ]},
    {"compound": "CCN(CC)CC.O=C(O)COc1nc(Cl)c(Cl)cc1Cl", "note": "[triclopyr triethylamine salt]", "values": [
      {"measurement": "Relative volatility", "setting": "[1]; [2]", "result": 100}
    ]},
    {"compound": "CC(C)N.O=C(O)COc1ccc(Cl)cc1Cl", "note": "[2,4-D IPA]", "values": [
      {"measurement": "Eye irritation score, Iris", "setting": "Eye irritation testing", "result": 0},
      {"measurement": "Eye irritation score, Cornea", "setting": "Eye irritation testing", "result": 4},
      {"measurement": "Eye irritation score, Conjunctivae", "setting": "Eye irritation testing", "result": 6}
    ]},
    {"compound": "CNC.O=C(O)COc1ccc(Cl)cc1Cl", "note": "[2,4-D DMA salt, 2,4-D dimethylamine (DMA) salt]", "values": [
      {"measurement": "Relative volatility", "setting": "[1]; [3]", "result": 100},
      {"measurement": "Eye irritation score, Iris", "setting": "Eye irritation testing", "result": 1},
      {"measurement": "Eye irritation score, Cornea", "setting": "Eye irritation testing", "result": 3},
      {"measurement": "Eye irritation score, Conjunctivae", "setting": "Eye irritation testing", "result": 3}
    ]}
  ]
}
